Data as given in US20150118215A1, “Methods of Inhibiting Cell Proliferation” (The General Hospital Corporation, priority 2012, published 2015).
“Also recorded” adds a separate entry of the source. Each block holds one compound with its values, some of them ahead of it.

Legend:
[1] = test system: MTC cells; assay: Cell population albumin degradation assay (DQ-Red BSA); type: cell-based; details: 5 μM peptides, 1 μM bafilomycin A1, 20 mM NH4Cl, 1 mM amiloride, 100 μM DMA
Experimental: Cell Population Albumin Degradation Assay—
Quantitative protein degradation assay was performed using DQ-Red BSA. MTC cells were seeded on 48-well plate (5,000 cells/well) and grown for 7 days until being polarized, followed by starvation for two days in serum-free DMEM medium. Cells were washed with Ringer buffer (pH 6.0) for three times and with Ringer buffer (pH 7.4) once. Cells were then incubated in 200 μl of Ringer buffer (pH 7.4) containing as indicated: 5 μM FITC-TAT, 5 μM FITC-a2N1-17-TAT peptide, 1 μM baflomycin A1, 20 mM NH4Cl, 1 mM amiloride or 100 μM DMA. DQ-Red BSA was added to a final concentration of 10 μg/ml. The fluorescence was estimated using a DTX 880 Microplate Reader (Beckman) with 590-nm excitation and 625-nm emission filters every 3 minutes. The 48-well plate was kept at 37° C. in the microplate reader (FIG. 11).

[2] = test system: MTC cells; assay: Cell population endocytic uptake assay (albumin-Alexa555, RITC-dextran) in MTC cells; type: cell-based; details: for effect on endocytic uptake of fluid phase marker RITC-dextran: control and peptide-stimulated conditions, inhibitors; for effect on uptake of albumin-Alexa555 via receptor-mediated (CDE) pathway: control non-stimulated conditions; for effect on uptake of albumin-Alexa555 via receptor-mediated (CDE) pathway / effect on uptake of albumin-Alexa555 via FITC-a2N1-17-TAT peptide-induced macropinocytosis (CIE) pathway: 1 μM bafilomycin A1, 100 μM DMA or 100 μM EIPA; for effect on uptake of albumin-Alexa555 via FITC-a2N1-17-TAT peptide-induced macropinocytosis (CIE) pathway: peptide-stimulated
Experimental: (§1) Cell Population Albumin Endocytic Uptake Assay—
(§2) Quantitative endocytic uptake of albumin-Alexa555 and RITC-dextran was performed using a cell population assay as previously described (Hurtado-Lorenzo et al. (Nat Cell Biol 8, 124-136, 2006)). HeLa cells were seeded on 48-well plates (5,000 cells/well) and grown for 5 days. MTC cells were seeded on 48-well plates (5,000 cells/well) and grown for 7 days until polarized, followed by starvation for 2 days in serum-free DMEM medium. Cells were incubated in 200 μl of Ringer buffer (pH 7.4) containing either 200 μg/ml albumin-Alexa555 or 500 μg/ml RITC-dextran in the presence of 5 μM FITC-TAT or 5 μM FITC-a2N1-17-TAT peptides. As indicated, cells were also treated with 1 μM bafilomycin A1, 1 mM amiloride, 100 μM DMA or 100 μM EIPA. At the indicated times, cells were washed with Ringer's buffer (pH 6.0) for three times and were permeabilized in 20 mM MOPS (pH 7.0), 0.1% Triton X-100. The fluorescence was measured using a DTX 880 Microplate Reader (Beckman) with 535-nm excitation and 595-nm emission filters (FIGS. 7, 8, and 12).

[3] = test system: MTC cells; assay: Pulse-chase live time-lapse confocal imaging and tracking of endocytic vesicles; type: cell-based
Experimental: Pulse-Chase Experiments and Live Time-Lapse Confocal Fluorescence Imaging—
Live cell imaging of MTC cells was performed using time-lapse confocal fluorescent imaging as previously described (Hurtado-Lorenzo et al. (Nat Cell Biol 8, 124-136, 2006)). MTC cells were seeded on FluoroDish (World Precision Instruments, Inc) (25,000-100,000 cells/dish) and grown to about 50% confluency. To label the organelles of the endocytic pathway in vivo, MTC cells were transfected using lipofectamine 2000 (Invitrogen) with 5 μg of the plasmids: i) EEA1-GFP or Rab5-EGFP (early endosomal markers); ii) Rab7-EGFP (late endosomal marker), and iii) LAMP1-mGFP (lysosomal marker). After two days, the cells were washed for three times with Ringer's buffer (pH 6.0) followed by one wash with Ringer's buffer (pH 7.4) at 37° C., and i) pulsed for 15 min with 5 μM FITC-TAT and 100 μg/ml albumin-Alexa594: ii) pulsed for 15 min with 5 μM FITC-a2N1-17-TAT and 100 μg/ml albumin-Alexa594; or iii) pre-incubated in the presence or absence of 1 μM bafilomycin A1 and pulsed with 100 μg/ml albumin-Alexa594. The MTC cells transfected with EEA1-GFP, Rab5-EGFP, Rab7-EGFP and LAMP1-GFP plasmids were pulsed for 6-15 min with 5 μM of CTMR-a2N1-17-TAT peptide. After the pulse, cells were washed either by perfusion or rinsing with Ringer's buffer (pH 7.4) and incubated in an environmental chamber (37° C., 5% CO2) coupled to a Nikon inverted microscope. Videos were acquired with a spinning-disc confocal imaging system Ultra View RS (Perkin Elmer). FIGS. 9 and 10 show frames from these movies.
Image Analysis and Tracking of Endocytic Vesicles—
Dynamics of the movement of early endosomes, late endosomes and lysosomes labeled with either: i) albumin-Alexa594; ii) FITC-a2N1-17-TAT and albumin-Alexa594; or iii) CTMR-a2N1-17-TAT and transfected EEA1-GFP markers were tracked with Particle Tracker PlugIn (Merkulova et al. (Biochim BiophysActa 1797, 1398-1409, 2010)) for ImageJ (NIH). The trajectories that appeared for over 30 frames were further analyzed. The two-dimensional displacement between consecutive frames was calculated from changes in X and Y position coordinates and speed was calculated by dividing the displacement by time. The two-dimensional displacements between all possible combinations of frames were also calculated and the longest distance was defined as “maximum distance” of the trajectory. The speeds were averaged for 11 consecutive frames and the fastest speed was defined as “maximum speed” of the trajectory.

[4] = target: T1, cytohesin-2 (Homo sapiens, UniProt Q99418); assay: Radiolabel-based GEF-activity assay ([35S]-GTPγS binding) of full-length cytohesin-2 with myr-Arf1 or myr-Arf6; type: biochemical
T1 construct: steady-state enzymatic GEF-activity analysis of full-length cytohesin-2 or Sec7 domain with Arf1 and Arf6; made in house; host or cells: E. coli BL21DE3
T1 sequence (Q99418 1-400): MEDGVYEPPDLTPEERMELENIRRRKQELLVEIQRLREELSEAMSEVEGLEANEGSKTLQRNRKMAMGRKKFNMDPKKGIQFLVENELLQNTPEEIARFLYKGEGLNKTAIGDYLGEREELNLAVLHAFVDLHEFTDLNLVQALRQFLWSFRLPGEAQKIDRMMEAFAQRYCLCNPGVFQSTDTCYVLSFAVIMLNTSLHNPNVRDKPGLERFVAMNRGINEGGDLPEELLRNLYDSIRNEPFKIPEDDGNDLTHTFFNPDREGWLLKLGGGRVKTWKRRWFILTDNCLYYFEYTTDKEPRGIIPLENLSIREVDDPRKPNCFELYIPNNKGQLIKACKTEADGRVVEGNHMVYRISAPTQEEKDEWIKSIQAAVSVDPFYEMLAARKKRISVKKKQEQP
Experimental: Two assays were used to determine the GDP/GTP-exchange activity of both full-length cytohesin-2 and Sec7 domain.
a) Radiolabel-Based Assay.
The lipids were dissolved in chloroform. […] Proteins were trapped on nitrocellulose filters.
To test the potential signaling between V-ATPase and cytohesin-2/Arf GTP-binding proteins, a GEF-activity assay was established for cytohesin-2 (wt) and myristoylated myr-Arf6 (wt) and myr-Arf1 (wt) GTP-binding proteins (FIG. 2A). Human Arf1 was co-expressed with yeast N-myristoyltransferase in E. coli BL21/DE3 strain. Recombinant myr-Arf1 was purified from the E. coli lysate (A1) using an AKTApurifier equipped with HiTrapQ, Superdex200 columns (A2), and Phenyl Sepharose HP column (A3). Human Arf6 was also co-expressed with yeast N-myristoyltransferase in E. coli BL21/DE3 strain. Recombinant myr-Arf6 was extracted from insoluble fraction using Triton X-100 (B1). The extract was precipitated by 35% ammonium sulfate and myr-Arf6 purified with HiTrapQ column (B2). […] Several soluble, cell permeable and fluorescently labeled a2N1-17 derived peptides were synthesized, which were used in the current GEF-activity and structural studies in vitro.

[5] = test system: HeLa cells; assay: Cell population endocytic uptake assay (albumin-Alexa555, RITC-dextran) in HeLa cells; type: cell-based; details: 5 μM peptide
Experimental: as §1, §2

[6] = test system: Human NSCLC A549 cells; assay: Cell proliferation assays (MTT, direct cell counting); type: cell-based; details: A549, wild-type EGFR, KRas-G12S; three days treatment
Experimental: Cell Proliferation Assays—
First, MTT proliferation assay was carried out using cell growth determination kit according to manufacturer instructions (Sigma). Human NSCLC A549 cells which are expressing wild-type EGFR with KRas-G12S activation mutation were studied in these experiments. […] Medium was changed daily for three days, and cells were stained with MTT and DAPI when indicated.
Second, direct cells counting assays were also performed as follows. Microscopic images of 0.317 mm^2 area each well were acquired for MTT stained cells and cells were counted using ImageJ (NIH). […] Alternatively, the cells were stained with DAPI and microscopic images of whole wells were acquired using DeltaVision system (Applied Precision). Cells were counted using Particle Tracker PlugIn for ImageJ as above (FIG. 13).

[7] = target: T2, Sec7-domain of cytohesin-2 (Homo sapiens, UniProt Q99418); details: Biacore; a2N(1-17) peptide and Sec7-domain; read-out: dissociation constant KD; cited from earlier work
T2 sequence (Q99418 72-201 limits assumed): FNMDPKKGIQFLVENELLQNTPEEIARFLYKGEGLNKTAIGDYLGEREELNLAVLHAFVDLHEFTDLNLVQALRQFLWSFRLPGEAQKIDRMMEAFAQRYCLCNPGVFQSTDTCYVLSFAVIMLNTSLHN

[8] = EEA1-EGFP positive early endosomes, peptide in cytosol of MTC cells, 5 μM

Compound: CN(C)c1nc(N)c(C(=O)N=C(N)N)nc1Cl.Cl [DMA, 5-N,N-dimethylamiloride hydrochloride]
- effect on degradation of DQ-Red-BSA in endosomal/lysosomal compartments ([1]; hydrochloride): significantly stimulated; also recorded: increased
- effect on endocytic uptake of fluid phase marker RITC-dextran [2]: not modulated
- effect on uptake of albumin-Alexa555 via receptor-mediated (CDE) pathway ([2]; hydrochloride): does not affect; also recorded: does not modulate
- effect on uptake of albumin-Alexa555 via FITC-a2N1-17-TAT peptide-induced macropinocytosis (CIE) pathway ([2]; hydrochloride): could inhibit; also recorded: strongly inhibits

Compound: CCN(c1nc(N)c(C(=O)N=C(N)N)nc1Cl)C(C)C [EIPA, 5-(N-ethyl-N-isopropyl)amiloride]
- effect on uptake of albumin-Alexa555 via receptor-mediated (CDE) pathway [2]: does not affect
- effect on uptake of albumin-Alexa555 via FITC-a2N1-17-TAT peptide-induced macropinocytosis (CIE) pathway [2]: could inhibit

Compound: Cl.N [NH4Cl]
- effect on degradation of DQ-Red-BSA in endosomal/lysosomal compartments [1]: strongly inhibited

Compound: N=C(N)NC(=O)c1nc(Cl)c(N)nc1N [amiloride]
- effect on degradation of DQ-Red-BSA in endosomal/lysosomal compartments [1]: significantly stimulated

Compound: CO/C1=C\C(C)=C\[C@@H](C)[C@@H](O)[C@@H](C)C/C(C)=C/C=C/[C@H](OC)[C@@H]([C@@H](C)[C@@H](O)[C@H](C)[C@@]2(O)C[C@@H](O)[C@H](C)[C@@H](C(C)C)O2)OC1=O [bafilomycin A1]
- effect on degradation of DQ-Red-BSA in endosomal/lysosomal compartments [1]: strongly inhibited
- effect on moving distance of albumin-Alexa594 positive vesicles ([3]; MTC cells, 1 μM bafilomycin A1): time-dependent inhibitory effect
- inhibitory effect on speed of albumin-Alexa594 positive vesicles ([3]; MTC cells, late stages of trafficking, 1 μM bafilomycin A1): 20%
- effect on endocytic uptake of fluid phase marker RITC-dextran [2]: not modulated
- effect on uptake of albumin-Alexa555 via receptor-mediated (CDE) pathway [2]: inhibitory action; also recorded: inhibits
- effect on uptake of albumin-Alexa555 via FITC-a2N1-17-TAT peptide-induced macropinocytosis (CIE) pathway [2]: no effect; also recorded: does not modulate

Compound: CTMR- MGSLFRSESMCLAQLFL - YGRKKRRQRRR [CTMR-a2N1-17-TAT]
- moving distance of early endosomes [3, 8]: significant increase
- moving speed of early endosomes [3, 8]: significant increase

Compound: FITC-TAT: biologically inactive control peptide, FITC-labelled TAT sequence (YGRKKRRQRRR; SEQ ID NO:33); also purchased from Anaspec
- effect on degradation of DQ-Red-BSA in endosomal/lysosomal compartments [1]: did not have any effect; also recorded: do not affect
- potently inhibits the enzymatic activity of cytohesin-2 (in words) ([4]; with both myr-Arf6 and myr-Arf1 as substrate): not
- effect on uptake of RITC-dextran [5]: not
- effect on uptake of albumin-Alexa555 [5]: not
- effect on endocytic uptake of albumin-Alexa555 (in words) ([2]; 5 μM peptide): no effect and not
- effect on uptake of fluid-phase marker RITC-dextran ([2]; 5 μM peptide): not

Compound: MASVFRSEEMCLSQVFL [a4N1-17]
- inhibition of proliferation of human lung cancer A549 cells [6]: very potent inhibitors

Compound: MGELFRSEEMTLAQLFL [a1N1-17]
- inhibition of proliferation of human lung cancer A549 cells [6]: very potent inhibitors

- more potent inhibitor of cytohesin-2 than SecinH3 ([4]; relative to SecinH3): up to 150 times
Compound: MGSLFRSESMCLAQLFL [a2N1-17]
- inhibition of proliferation of human lung cancer A549 cells [6]: very potent inhibitors

Compound: MGSLFRSETMCLAQLFL [a2N(1-17)]
- Kd [7]: 344 nM

Compound: MGSMFRSEEVALVQLLL [a3N1-17]
- inhibition of proliferation of human lung cancer A549 cells [6]: very potent inhibitors
